The source of these data is ChEMBL document CHEMBL1201862, “PubChem BioAssay data set” (2004).

Some test systems named below: CCRF-CEM; SNB-19; TK-10; A549; SF-539; MDA-MB-231; OVCAR-3; U-251; HOP-92; IGROV-1; SK-MEL-28; COLO 205; MOLT-4; A498; UO-31; T47D; OVCAR-4; UACC-257; OVCAR-5; NCI-H226.
Holding throughout (assay): growth of human tumour cells (NCI), 48 h

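Test compounds were applied to cells in 96-well plates for 48 hours at 5 doses. Here, GI50 denotes the concentration required for 50% inhibition of growth.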 Activity calls are given as the source filed them. Cut-off read from the data, not from the text of the source: active = GI50 up to about 1.1 µM and inactive = higher.

For `CC(=O)OCc1cc2c(s1)C(=O)c1sccc1C2=O`, the GI50 with CCRF-CEM was 0.383 µM (active); with SNB-19, 0.177 µM (active); in the assay with TK-10, 1.79 µM (inactive); in the assay on A549 it was 0.181 µM (active); in the assay with SF-539, 0.115 µM (active); with MDA-MB-231 it was 0.237 µM (active). The GI50 is 0.223 µM (active) in the assay with OVCAR-3; 0.248 µM (active) in the assay on U-251; 0.528 µM (active) in the assay with HOP-92; 1.46 µM (inactive) with IGROV-1; < 0.0386 µM (active) with SK-MEL-28; 1.65 µM (inactive) with COLO 205. Moreover, the GI50 is 0.356 µM (active) with MOLT-4; 1.82 µM (inactive) in the assay with A498; 0.178 µM (active) in the assay with UO-31; 0.309 µM (active) in the assay on T47D; 0.191 µM (active) with OVCAR-4; 0.0986 µM (active) in the assay on UACC-257. Also, the results for the GI50 in the assay on OVCAR-5 and in the assay with NCI-H226 were 0.19 µM (active) and 0.355 µM (active), respectively.
For `CCC(/C=C/c1ccccc1)=N\NC(=S)N/N=C(/C=C/c1ccccc1)CC`, the GI50 is 7.55 µM (inactive) with CCRF-CEM; 63 µM (inactive) in the assay with SNB-19; > 100 µM (inactive) in the assay on TK-10; 17.2 µM (inactive) with A549; 31.5 µM (inactive) with SF-539; > 100 µM (inactive) with MDA-MB-231. In addition, the GI50 with OVCAR-3 is 22.9 µM (inactive); in the assay on U-251, 18.1 µM (inactive); with HOP-92, 83.9 µM (inactive); with IGROV-1 it was 55.8 µM (inactive); in the assay on SK-MEL-28, > 100 µM (inactive); in the assay on COLO 205 it was 30.8 µM (inactive). Besides, the GI50 in the assay with MOLT-4 was 5.51 µM (inactive); with A498, 20.8 µM (inactive); with UO-31, 13 µM (inactive); in the assay with T47D, 35.9 µM (inactive); in the assay with OVCAR-4 it was 35.2 µM (inactive); in the assay with UACC-257, 39.6 µM (inactive). In addition, in the assay on NCI-H226, the GI50 is 32.2 µM (inactive).
Consider `O=C1Cc2cc3ccccc3nc2-c2ccccc2N1`, for which the GI50 is > 100 µM (inactive) in the assay on CCRF-CEM; 49.2 µM (inactive) in the assay on SNB-19; 27.7 µM (inactive) in the assay on TK-10; 63.7 µM (inactive) with A549; 69.7 µM (inactive) in the assay with SF-539; 20.5 µM (inactive) in the assay on MDA-MB-231. The GI50 is 73.1 µM (inactive) in the assay with OVCAR-3; 60 µM (inactive) in the assay with U-251; 41.7 µM (inactive) in the assay on HOP-92; > 100 µM (inactive) with IGROV-1; > 100 µM (inactive) in the assay with SK-MEL-28; > 100 µM (inactive) in the assay on COLO 205. For the same compound, the GI50 in the assay with MOLT-4 was > 100 µM (inactive); in the assay with A498 it was 61.5 µM (inactive); with UO-31, 35.4 µM (inactive); with T47D it was 38.5 µM (inactive); in the assay on OVCAR-4, 45.6 µM (inactive); in the assay with UACC-257, 99.1 µM (inactive). Also, the GI50 with OVCAR-5 and in the assay on NCI-H226 was > 100 µM (inactive) in each case.
Consider `N#Cc1cc2c(cc1Cl)Sc1nnc(Nc3ccccc3)n1S2(=O)=O`, for which the GI50 is 1.56 µM (inactive) with CCRF-CEM; 2.3 µM (inactive) with SNB-19; 4.22 µM (inactive) with TK-10; 5.94 µM (inactive) in the assay with A549; 2.07 µM (inactive) in the assay on SF-539; 1.91 µM (inactive) in the assay with MDA-MB-231. Further, the GI50 with OVCAR-3 is 1.64 µM (inactive); in the assay with U-251 it was 1.87 µM (inactive); in the assay with HOP-92 it was 0.798 µM (active); in the assay with IGROV-1 it was 2.2 µM (inactive); in the assay on SK-MEL-28, 2.26 µM (inactive); in the assay with COLO 205, 2.18 µM (inactive). The GI50 is 2.02 µM (inactive) with MOLT-4; 8.32 µM (inactive) in the assay with A498; 1.78 µM (inactive) with UO-31; 2.29 µM (inactive) in the assay with T47D; 2.68 µM (inactive) in the assay with OVCAR-4; 1.79 µM (inactive) in the assay with UACC-257. The GI50 was 1.92 µM (inactive) with OVCAR-5 and 2.24 µM (inactive) in the assay with NCI-H226.
As for `OC(C1CCC=NN1C(O)(C(F)(F)F)C(F)(F)F)(C(F)(F)F)C(F)(F)F` (stereo not drawn), the GI50 in the assay with CCRF-CEM, with SNB-19, in the assay with TK-10, in the assay with A549, in the assay on SF-539 and in the assay with MDA-MB-231 was > 10 µM (inactive) throughout. Also, the GI50 with OVCAR-3, with U-251, in the assay with HOP-92, in the assay on IGROV-1, with SK-MEL-28 and with COLO 205 was > 10 µM (inactive) throughout. Further, the GI50 with MOLT-4, in the assay with A498, with T47D, with OVCAR-4, with UACC-257 and with OVCAR-5 was > 10 µM (inactive) each time. Besides, in the assay on NCI-H226, the GI50 was > 10 µM (inactive).
Consider `CCOC(=O)Nc1cc2c(c(N)n1)N=C(c1ccc(Cl)cc1Cl)CN2`, for which the GI50 with CCRF-CEM is < 0.0155 µM (active); in the assay on SNB-19 it was 0.019 µM (active); in the assay on TK-10, 3.78 µM (inactive); with A549, < 0.0191 µM (active); in the assay on SF-539 it was < 0.0173 µM (active); with MDA-MB-231, 0.0442 µM (active). In addition, the GI50 in the assay on OVCAR-3 is 0.0109 µM (active); in the assay with U-251 it was < 0.019 µM (active); in the assay with HOP-92, 17.3 µM (inactive); in the assay with IGROV-1, 0.292 µM (active); in the assay on COLO 205, 0.0425 µM (active); in the assay on MOLT-4, < 0.0228 µM (active). In addition, the GI50 was 2.68 µM (inactive) in the assay on A498; 0.052 µM (active) in the assay on UO-31; 15.6 µM (inactive) in the assay on T47D; 14.3 µM (inactive) in the assay on OVCAR-4; 20.8 µM (inactive) in the assay on UACC-257; 0.0392 µM (active) in the assay with OVCAR-5. For the same compound, the GI50 in the assay with NCI-H226 was 0.0314 µM (active).
As to `Cc1ccc(-c2cc(-c3c(C)nn(C)c(=O)c3N)n[nH]2)cc1`, the GI50 in the assay on CCRF-CEM, with SNB-19, with TK-10, with A549, in the assay on SF-539 and in the assay on MDA-MB-231 was > 100 µM (inactive) each time. In addition, the GI50 with OVCAR-3 is 88.3 µM (inactive); with U-251 it was > 100 µM (inactive); with HOP-92, > 100 µM (inactive); in the assay on IGROV-1, > 100 µM (inactive); with SK-MEL-28 it was > 100 µM (inactive); with COLO 205 it was > 100 µM (inactive). Also, the GI50 was > 100 µM (inactive) in the assay on MOLT-4; 28.5 µM (inactive) in the assay with A498; 53.5 µM (inactive) in the assay on T47D; > 100 µM (inactive) in the assay on OVCAR-4; > 100 µM (inactive) in the assay on UACC-257; > 100 µM (inactive) with OVCAR-5. For the same compound, the GI50 in the assay on NCI-H226 is > 100 µM (inactive).
Regarding `OCCOc1ccccc2cccc1-2`, the GI50 with CCRF-CEM, in the assay with SNB-19, in the assay with TK-10, with A549, with SF-539 and with MDA-MB-231 was > 100 µM (inactive) each time. Moreover, the GI50 in the assay on OVCAR-3, in the assay on U-251, with HOP-92, with IGROV-1, with SK-MEL-28 and with COLO 205 was > 100 µM (inactive) each time. The GI50 with A498 was > 100 µM (inactive); in the assay with UO-31, > 100 µM (inactive); in the assay with T47D, 47.1 µM (inactive); in the assay with OVCAR-4 it was 34 µM (inactive); with UACC-257, > 100 µM (inactive); with OVCAR-5, > 100 µM (inactive). The GI50 in the assay on NCI-H226 is > 100 µM (inactive).
As for `O=C1CSC(c2cccc(Oc3ccccc3)c2)N1c1ccc(Cl)cc1` (stereo not drawn), the GI50 is 51.4 µM (inactive) in the assay on CCRF-CEM; 54.8 µM (inactive) in the assay on SNB-19; 22.4 µM (inactive) in the assay with TK-10; 31.9 µM (inactive) with A549; 32.1 µM (inactive) in the assay on SF-539; 27.4 µM (inactive) in the assay on MDA-MB-231. In addition, the GI50 was 39.4 µM (inactive) in the assay on OVCAR-3; 31 µM (inactive) in the assay with U-251; 13.4 µM (inactive) in the assay with HOP-92; 41.2 µM (inactive) in the assay on SK-MEL-28; 18.5 µM (inactive) in the assay on COLO 205; 13.6 µM (inactive) in the assay on MOLT-4. For the same compound, the GI50 with A498 is 17.5 µM (inactive); with UO-31, 34.5 µM (inactive); with T47D it was 10.2 µM (inactive); in the assay on OVCAR-4, 26.2 µM (inactive); in the assay with UACC-257 it was 17.4 µM (inactive); with OVCAR-5 it was 65.5 µM (inactive). Moreover, the GI50 with NCI-H226 is 32.8 µM (inactive).
Consider `C=CCC1(O)CC(n2cc(C)c(=O)[nH]c2=O)OC1CO[Si](C)(C)C(C)(C)C` (stereo not drawn), for which the GI50 is 43.8 µM (inactive) in the assay with CCRF-CEM; > 100 µM (inactive) in the assay on SNB-19; 35.5 µM (inactive) in the assay on A549; 53.5 µM (inactive) in the assay with SF-539; 64.6 µM (inactive) in the assay on MDA-MB-231; 39 µM (inactive) with OVCAR-3. Moreover, the GI50 with U-251 is 75.3 µM (inactive); with HOP-92, 35.5 µM (inactive); in the assay on IGROV-1 it was 46.9 µM (inactive); with SK-MEL-28 it was 68.9 µM (inactive); with COLO 205 it was 21.6 µM (inactive); with MOLT-4 it was 57.3 µM (inactive). Also, the GI50 was 37.2 µM (inactive) with A498; 42.4 µM (inactive) with UO-31; 55.2 µM (inactive) in the assay with T47D; 47 µM (inactive) with OVCAR-4; 52.4 µM (inactive) with UACC-257; 61.9 µM (inactive) in the assay on OVCAR-5. Further, the GI50 with NCI-H226 was 49.5 µM (inactive).
